Test results reported in PubChem BioAssay AID2060491 (Molecular Pharmacology Branch, DTP, NCI, 2025).

System: 857933-349-R-J2-PDC complex spheroids, viability
Test: Anticancer human tumor 857933-349-R-J2-PDC patient-derived colon adenocarcinoma cell line growth inhibition [GQUAD]
Details: for IC50: curve of first compound; for viability, T/C: stronger effect = lower value; active means viability on the fitted dose curve at most 10% of control; inactive means the rest
Summary of the method: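 Multi-cell-type spheroids of tumor cells with HUVEC and mesenchymal stem cells, treated with drug combinations. Concentrations descend in half-log steps from near clinical Cmax, or from 10 microM where Cmax is unknown; viability read-out.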

[1] = second compound 0.0316 µM, first compound 0.0316 µM
[2] = second compound 0.0316 µM, first compound 0.1 µM
[3] = second compound 0.0316 µM, first compound 0.316 µM
[4] = second compound 0.0316 µM, first compound 1 µM
[5] = second compound 0.0316 µM, first compound 3.16 µM
[6] = second compound 0.0316 µM, first compound 10 µM
[7] = second compound 0.1 µM, first compound 0.0316 µM
[8] = second compound 0.1 µM, first compound 0.1 µM
[9] = second compound 0.1 µM, first compound 0.316 µM
[10] = second compound 0.1 µM, first compound 1 µM
[11] = second compound 0.1 µM, first compound 3.16 µM
[12] = second compound 0.1 µM, first compound 10 µM
[13] = second compound 0.316 µM, first compound 0.0316 µM
[14] = second compound 0.316 µM, first compound 0.1 µM
[15] = second compound 0.316 µM, first compound 0.316 µM
[16] = second compound 0.316 µM, first compound 1 µM
[17] = second compound 0.316 µM, first compound 3.16 µM
[18] = second compound 0.316 µM, first compound 10 µM
[19] = second compound 1 µM, first compound 0.0316 µM
[20] = second compound 1 µM, first compound 0.1 µM
[21] = second compound 1 µM, first compound 0.316 µM
[22] = second compound 1 µM, first compound 1 µM
[23] = second compound 1 µM, first compound 3.16 µM
[24] = second compound 1 µM, first compound 10 µM
[25] = second compound 3.16 µM, first compound 0.0316 µM
[26] = second compound 3.16 µM, first compound 0.1 µM
[27] = second compound 3.16 µM, first compound 0.316 µM
[28] = second compound 3.16 µM, first compound 1 µM
[29] = second compound 3.16 µM, first compound 3.16 µM
[30] = second compound 3.16 µM, first compound 10 µM
[31] = second compound 10 µM, first compound 0.0316 µM
[32] = second compound 10 µM, first compound 0.1 µM
[33] = second compound 10 µM, first compound 0.316 µM
[34] = second compound 10 µM, first compound 1 µM
[35] = second compound 10 µM, first compound 3.16 µM
[36] = second compound 10 µM, first compound 10 µM
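Further: spheroids exposed to compounds for one week before readout.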
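Wherever viability, T/C is given: percent viability relative to vehicle DMSO wells taken as 100%.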

COc1cc(C2c3cc4c(cc3C(OC3OC5COC(C)OC5C(O)C3O)C3COC(=O)C23)OCO4)cc(OC)c1O (centres undefined) + CN(C)c1ccc(Nc2c3ccc(NC(=O)CCN4CCCC4)cc3nc3cc(NC(=O)CCN4CCCC4)ccc23)cc1
5.7 µM: IC50 (second compound 0.316 µM)
6.68 µM: IC50 (second compound 0.1 µM)
5.77 µM: IC50 (second compound 10 µM)
5.78 µM: IC50 (second compound 3.16 µM)
5.97 µM: IC50 (second compound 1 µM)
inactive: viability, T/C [1] 98.2% | viability, T/C [2] 95.4% | viability, T/C [3] 80.3% | viability, T/C [4] 79.3% | viability, T/C [5] 58.8% | viability, T/C [6] 42.1% | viability, T/C [7] 96.3% | viability, T/C [8] 102% | viability, T/C [9] 84.3% | viability, T/C [10] 76.3% | viability, T/C [11] 59.6% | viability, T/C [12] 44.8% | viability, T/C [13] 102% | viability, T/C [14] 95.8% | viability, T/C [15] 79.1% | viability, T/C [16] 70.2% | viability, T/C [17] 60.2% | viability, T/C [18] 41.8% | viability, T/C [19] 101% | viability, T/C [20] 89.6% | viability, T/C [21] 83.3% | viability, T/C [22] 68.4% | viability, T/C [23] 61.6% | viability, T/C [24] 41.6% | viability, T/C [25] 90.8% | viability, T/C [26] 81.2% | viability, T/C [27] 84.6% | viability, T/C [28] 71.8% | viability, T/C [29] 60.9% | viability, T/C [30] 40.3% | viability, T/C [31] 74.4% | viability, T/C [32] 76.9% | viability, T/C [33] 71% | viability, T/C [34] 67% | viability, T/C [35] 58.2% | viability, T/C [36] 42.7%
6.11 µM: IC50 (second compound 0.0316 µM)

C=CC(=O)N1CCN(c2nc(=O)n(-c3c(C)ccnc3C(C)C)c3nc(-c4c(O)cccc4F)c(F)cc23)C(C)C1 (centres undefined) + Cc1[nH]c2ccc(F)cc2c1-c1nc2c3cccnc3c3ncccc3c2[nH]1
> 10 µM: IC50 (second compound 0.0316 µM) | IC50 (second compound 0.1 µM) | IC50 (second compound 0.316 µM) | IC50 (second compound 1 µM) | IC50 (second compound 3.16 µM) | IC50 (second compound 10 µM)
inactive: viability, T/C [1] 102% | viability, T/C [2] 106% | viability, T/C [3] 96.7% | viability, T/C [4] 102% | viability, T/C [5] 109% | viability, T/C [6] 86% | viability, T/C [7] 98.9% | viability, T/C [8] 101% | viability, T/C [9] 96.5% | viability, T/C [10] 104% | viability, T/C [11] 103% | viability, T/C [12] 93.4% | viability, T/C [13] 95.1% | viability, T/C [14] 100% | viability, T/C [15] 101% | viability, T/C [16] 97.4% | viability, T/C [17] 104% | viability, T/C [18] 89% | viability, T/C [19] 101% | viability, T/C [20] 106% | viability, T/C [21] 96.3% | viability, T/C [22] 104% | viability, T/C [23] 108% | viability, T/C [24] 89.2% | viability, T/C [25] 99% | viability, T/C [26] 110% | viability, T/C [27] 91.3% | viability, T/C [28] 99% | viability, T/C [29] 104% | viability, T/C [30] 95.3% | viability, T/C [31] 102% | viability, T/C [32] 98.2% | viability, T/C [33] 88.2% | viability, T/C [34] 92.7% | viability, T/C [35] 99% | viability, T/C [36] 84.7%
